Measurements reported in patent publication US20230278972A1, “SUBSTITUTED HALOALKYL SULFONANILIDE HERBICIDES” (FMC Corporation, priority 2020, published 2023).

Key:
Assay type in all cases: in vivo
[1] = test system: Ryegrass, Italian (Italian ryegrass, Lolium multiflorum); test: Test A postemergence, Ryegrass, Italian; settings: Postemergence
Summary of the method: (§1)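 Whole-plant herbicidal screen in pots of loam blended with sand. Sprays used a surfactant-containing, non-phytotoxic solvent vehicle. Timing was preemergence soil-directed at planting or postemergence at the one- to two-leaf stage (2–10 cm).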

[2] = test system: Foxtail, Giant (giant foxtail, Setaria faberi); test: Test A postemergence, Foxtail, Giant; settings: Postemergence
Summary of the method: as §1

[3] = test system: ragweed (common ragweed, Ambrosia artemisiifolia); test: Test A preemergence, ragweed; settings: Preemergence; for Ragweed plant response rating: 125 g ai/ha, visual injury on 0 to 100 scale (0 no effect, 100 complete control), approximately 10 days; for Plant response rating, Ragweed: 0 to 100 scale (0 no effect, 100 complete control)
Summary of the method: as §1

[4] = test system: blackgrass (Alopecurus myosuroides); test: Test A postemergence, blackgrass; settings: Postemergence
Summary of the method: as §1

[5] = test system: Foxtail, Giant (giant foxtail, Setaria faberi); test: Test A preemergence, Foxtail, Giant; settings: Preemergence; for Foxtail, Giant plant response rating: 125 g ai/ha, visual injury on 0 to 100 scale (0 no effect, 100 complete control), approximately 10 days; for Plant response rating, Foxtail, Giant: 0 to 100 scale (0 no effect, 100 complete control)
Summary of the method: as §1

corn (Zea mays) = test: Test A postemergence, corn; settings: Postemergence
Summary of the method: as §1

[6] = test system: galium (catchweed bedstraw, Galium aparine); test: Test A postemergence, galium; settings: Postemergence
Summary of the method: (§2)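 Directed soil spray at planting gave the preemergence treatment, while foliar application to one- to two-leaf seedlings (2–10 cm) gave the postemergence one; pots held a loam and sand mixture and chemicals were carried in a non-phytotoxic solvent with surfactant.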

kochia (Bassia scoparia) [7] = test: Test A postemergence, kochia; settings: Postemergence
Summary of the method: as §1

kochia (Bassia scoparia) [8] = test: Test A preemergence, kochia; settings: Preemergence; for Kochia plant response rating: 125 g ai/ha, visual injury on 0 to 100 scale (0 no effect, 100 complete control), approximately 10 days; for Plant response rating, Kochia: 0 to 100 scale (0 no effect, 100 complete control)
Summary of the method: as §1

[9] = test system: pigweed (Amaranthus retroflexus); test: Test A postemergence, pigweed; settings: Postemergence
Summary of the method: as §1

[10] = test system: pigweed (Amaranthus retroflexus); test: Test A preemergence, pigweed; settings: for Pigweed plant response rating: 125 g ai/ha, visual injury on 0 to 100 scale (0 no effect, 100 complete control), approximately 10 days; for Plant response rating, Pigweed: 0 to 100 scale (0 no effect, 100 complete control)
Summary of the method: as §2

[11] = test system: ragweed (common ragweed, Ambrosia artemisiifolia); test: Test A postemergence, ragweed; settings: Postemergence
Summary of the method: as §1

[12] = test system: Ryegrass, Italian (Italian ryegrass, Lolium multiflorum); test: Test A preemergence, Ryegrass, Italian; settings: Preemergence; for Ryegrass, Italian plant response rating: 125 g ai/ha, visual injury on 0 to 100 scale (0 no effect, 100 complete control), approximately 10 days; for Plant response rating, Ryegrass, Italian: 0 to 100 scale (0 no effect, 100 complete control)
Summary of the method: as §1

[13] = test system: barnyardgrass (Echinochloa crus-galli); test: Test A postemergence, barnyardgrass; settings: Postemergence
Summary of the method: as §2

[14] = test system: wheat (Triticum aestivum); test: Test A postemergence, wheat; settings: Postemergence
Summary of the method: as §2

[15] = test system: barnyardgrass (Echinochloa crus-galli); test: Test A preemergence, barnyardgrass; settings: Preemergence; for Barnyardgrass plant response rating: 125 g ai/ha, visual injury on 0 to 100 scale (0 no effect, 100 complete control), approximately 10 days; for Plant response rating, Barnyardgrass: 0 to 100 scale (0 no effect, 100 complete control)
Summary of the method: as §1

[16] = 125 g ai/ha, visual injury approx. 10 days, 0 to 100 scale (0 no effect, 100 complete control)
[17] = 500 g ai/ha, visual injury vs untreated controls after approx. 10 days, 0 to 100 scale (0 no effect, 100 complete control)
[18] = 31 g ai/ha, visual injury on 0 to 100 scale (0 no effect, 100 complete control), approx. 10 days
[19] = 125 g ai/ha, 0 to 100 scale (0 no effect, 100 complete control)
[20] = 31 g ai/ha, visual injury, approx. 10 days
[21] = 31 g ai/ha, 0 to 100 scale (0 no effect, 100 complete control)

CC(=O)OCN(c1cc(C2=NO[C@@H]3CCC[C@H]23)c(C)cc1C)S(=O)(=O)C(F)(F)F (relative stereo) [Compound 102]
80: Plant response rating, Ryegrass, Italian [1, 16] | Foxtail, Giant plant response rating [5] | Pigweed plant response rating [9, 17] | Wheat plant response rating [14, 17] | Barnyardgrass plant response rating [15]
90: Ryegrass, Italian plant response rating [1, 17] | Plant response rating, Foxtail, Giant ([5]; 500 g ai/ha) | Kochia plant response rating (kochia (Bassia scoparia) [7]; [17]) | Plant response rating, Kochia (kochia (Bassia scoparia) [8]; 500 g ai/ha) | Ragweed plant response rating [11, 17] | Ryegrass, Italian plant response rating [12] | Plant response rating, Ryegrass, Italian ([12]; 500 g ai/ha) | Plant response rating, Barnyardgrass [13, 16] | Barnyardgrass plant response rating [13, 17]
0: Plant response rating, Blackgrass [4, 16] | Blackgrass plant response rating [4, 17]
10: Plant response rating, Corn (corn (Zea mays); [16])
30: Plant response rating, Foxtail, Giant [2, 16] | Corn plant response rating (corn (Zea mays); [17])
70: Foxtail, Giant plant response rating [2, 17] | Plant response rating, Ragweed ([3]; 500 g ai/ha) | Plant response rating, Kochia (kochia (Bassia scoparia) [7]; [16]) | Kochia plant response rating (kochia (Bassia scoparia) [8]) | Plant response rating, Pigweed [9, 16] | Plant response rating, Ragweed [11, 16]
40: Plant response rating, Wheat [14, 16]
20: Ragweed plant response rating [3]
100: Plant response rating, Galium [6, 16] | Galium plant response rating [6, 17] | Pigweed plant response rating [10] | Plant response rating, Pigweed ([10]; 500 g ai/ha) | Plant response rating, Barnyardgrass ([15]; 500 g ai/ha)

Cc1cc(C)c(C2=NOC3(C2)CC(C)CC(C)C3)cc1NS(=O)(=O)C(F)(F)F (single isomer, unassigned) [Compound 167]
60: Ryegrass, Italian plant response rating [12] | Plant response rating, Barnyardgrass [13, 19]
40: Plant response rating, Kochia (kochia (Bassia scoparia) [7]; [19]) | Kochia plant response rating (kochia (Bassia scoparia) [8])
20: Plant response rating, Ryegrass, Italian [1, 19] | Plant response rating, Blackgrass [4, 19] | Plant response rating, Pigweed [9, 18] | Pigweed plant response rating [10] | Plant response rating, Ragweed [11, 19] | Barnyardgrass plant response rating [15]
80: Plant response rating, Galium [6, 19]
10: Plant response rating, Foxtail, Giant [2, 19] | Foxtail, Giant plant response rating [5] | Plant response rating, Corn (corn (Zea mays); [19]) | Plant response rating, Kochia (kochia (Bassia scoparia) [7]; [18]) | Plant response rating, Barnyardgrass [13, 18]
0: Plant response rating, Ryegrass, Italian [1, 18] | Plant response rating, Foxtail, Giant [2, 18] | Plant response rating, Ragweed [3, 20] | Ragweed plant response rating [3] | Plant response rating, Blackgrass [4, 18] | Plant response rating, Foxtail, Giant [5, 20] | Plant response rating, Corn (corn (Zea mays); [18]) | Plant response rating, Galium [6, 18] | Plant response rating, Pigweed [10, 20] | Plant response rating, Ragweed [11, 18] | Plant response rating, Wheat [14, 18] | Plant response rating, Barnyardgrass [15, 20]
70: Plant response rating, Pigweed [9, 19]
30: Plant response rating, Kochia (kochia (Bassia scoparia) [8]; [20]) | Plant response rating, Ryegrass, Italian [12, 20] | Plant response rating, Wheat [14, 19]

Cc1cc(C)c(C2=NOC3(C2)CC(C)CC(C)C3)cc1NS(=O)(=O)C(F)(F)F (single isomer, unassigned) [Compound 168]
20: Kochia plant response rating (kochia (Bassia scoparia) [8])
90: Plant response rating, Galium [6, 19]
70: Plant response rating, Galium [6, 18] | Plant response rating, Barnyardgrass [13, 19]
60: Plant response rating, Pigweed [9, 18] | Plant response rating, Ragweed [11, 19] | Barnyardgrass plant response rating [15]
30: Plant response rating, Ryegrass, Italian [1, 19] | Plant response rating, Barnyardgrass [13, 18]
0: Plant response rating, Ryegrass, Italian [1, 18] | Plant response rating, Foxtail, Giant [2, 18] | Plant response rating, Ragweed [3, 20] | Ragweed plant response rating [3] | Plant response rating, Blackgrass [4, 18] | Plant response rating, Foxtail, Giant [5, 20] | Foxtail, Giant plant response rating [5] | Plant response rating, Corn (corn (Zea mays); [18]) | Plant response rating, Corn (corn (Zea mays); [19]) | Plant response rating, Kochia (kochia (Bassia scoparia) [7]; [18]) | Plant response rating, Kochia (kochia (Bassia scoparia) [8]; [20]) | Plant response rating, Pigweed [10, 20] | Plant response rating, Ragweed [11, 18] | Plant response rating, Ryegrass, Italian [12, 20] | Plant response rating, Wheat [14, 18] | Plant response rating, Wheat [14, 19] | Plant response rating, Barnyardgrass [15, 20]
80: Plant response rating, Pigweed [9, 19]
40: Ryegrass, Italian plant response rating [12]
10: Plant response rating, Foxtail, Giant [2, 19] | Plant response rating, Blackgrass [4, 19] | Plant response rating, Kochia (kochia (Bassia scoparia) [7]; [19]) | Pigweed plant response rating [10]

Cc1cc(Cl)c(NS(=O)(=O)C(F)(F)F)cc1C(=O)N1CCOC(C)C1 (stereo not shown) [Compound 1]
90: Foxtail, Giant plant response rating [5] | Plant response rating, Galium [6, 21] | Plant response rating, Ragweed [11, 16] | Ryegrass, Italian plant response rating [12] | Plant response rating, Barnyardgrass [13, 16]
50: Ragweed plant response rating [3] | Plant response rating, Blackgrass [4, 16] | Plant response rating, Pigweed [9, 21] | Plant response rating, Wheat [14, 16]
80: Plant response rating, Pigweed [9, 16] | Plant response rating, Ragweed [11, 21] | Barnyardgrass plant response rating [15]
60: Plant response rating, Kochia (kochia (Bassia scoparia) [7]; [16])
0: Plant response rating, Ryegrass, Italian [1, 21] | Plant response rating, Blackgrass [4, 21] | Plant response rating, Barnyardgrass [15, 20]
100: Plant response rating, Galium [6, 16] | Pigweed plant response rating [10]
40: Plant response rating, Ryegrass, Italian [1, 16] | Plant response rating, Kochia (kochia (Bassia scoparia) [8]; [20]) | Plant response rating, Ryegrass, Italian [12, 20]
20: Plant response rating, Foxtail, Giant [2, 21] | Plant response rating, Foxtail, Giant [5, 20] | Plant response rating, Corn (corn (Zea mays); [21]) | Plant response rating, Kochia (kochia (Bassia scoparia) [7]; [21])
30: Plant response rating, Ragweed [3, 20] | Plant response rating, Corn (corn (Zea mays); [16]) | Plant response rating, Wheat [14, 21]
70: Plant response rating, Foxtail, Giant [2, 16] | Kochia plant response rating (kochia (Bassia scoparia) [8]) | Plant response rating, Pigweed [10, 20] | Plant response rating, Barnyardgrass [13, 21]

Cc1cc(C(=O)N2CCOC(C)(C)C2)cc(NS(=O)(=O)C(F)(F)F)c1Cl [Compound 2]
20: Plant response rating, Foxtail, Giant [2, 21] | Plant response rating, Corn (corn (Zea mays); [21]) | Plant response rating, Kochia (kochia (Bassia scoparia) [7]; [16]) | Plant response rating, Kochia (kochia (Bassia scoparia) [8]; [20])
10: Plant response rating, Kochia (kochia (Bassia scoparia) [7]; [21])
40: Plant response rating, Ryegrass, Italian [1, 16] | Plant response rating, Wheat [14, 21]
80: Plant response rating, Foxtail, Giant [5, 20] | Foxtail, Giant plant response rating [5] | Plant response rating, Ragweed [11, 16] | Plant response rating, Barnyardgrass [13, 16]
100: Plant response rating, Pigweed [10, 20] | Pigweed plant response rating [10]
60: Plant response rating, Pigweed [9, 21] | Plant response rating, Wheat [14, 16] | Barnyardgrass plant response rating [15]
0: Plant response rating, Ryegrass, Italian [1, 21] | Plant response rating, Blackgrass [4, 21] | Plant response rating, Blackgrass [4, 16] | Plant response rating, Barnyardgrass [15, 20]
70: Plant response rating, Pigweed [9, 16]
30: Plant response rating, Ragweed [3, 20] | Plant response rating, Corn (corn (Zea mays); [16]) | Plant response rating, Ragweed [11, 21] | Plant response rating, Ryegrass, Italian [12, 20] | Plant response rating, Barnyardgrass [13, 21]
90: Ragweed plant response rating [3] | Plant response rating, Galium [6, 21] | Plant response rating, Galium [6, 16]
50: Plant response rating, Foxtail, Giant [2, 16] | Kochia plant response rating (kochia (Bassia scoparia) [8]) | Ryegrass, Italian plant response rating [12]
